According to PMC4423513, “Function of glutathione peroxidases in legume root nodules” (Journal of Experimental Botany, 2015):

How the values were obtained:
LjGpx3 = test: NADPH oxidation at […] nm, thioredoxin-coupled, steady state; assay type: biochemical, Lotus japonicus; conditions: apparent Km, 20 μM poplar Trxh1, 1 μM A. thaliana NADPH-Trx reductase, 0.4 mM NADPH, 30 mM Tris-HCl pH 8.0, 1 mM EDTA
LjGpx1 = target: T1, LjGpx1 (Lotus japonicus, UniProt Q56VU1); test: as above; assay type: biochemical; conditions: apparent Km; 20 μM poplar Trxh1, 1 μM A. thaliana NADPH-Trx reductase, 0.4 mM NADPH, 30 mM Tris-HCl pH 8.0, 1 mM EDTA; acyl chains of lipid not defined
T1 sequence (Q56VU1 72-236): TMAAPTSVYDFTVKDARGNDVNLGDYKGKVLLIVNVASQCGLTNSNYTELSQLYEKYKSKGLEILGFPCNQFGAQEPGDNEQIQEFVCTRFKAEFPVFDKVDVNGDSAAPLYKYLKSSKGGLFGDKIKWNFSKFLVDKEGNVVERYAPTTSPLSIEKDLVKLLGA

| Compound | Km (LjGpx3) | Km (LjGpx3; acyl chains of lipid not defined) | Km (LjGpx1) |
| --- | --- | --- | --- |
| CC(C)(OO)c1ccccc1 [Cumene hydroperoxide] | 214 µM | – | – |
| CC(C)(C)OO [t-Butyl hydroperoxide] | 167 µM | – | – |
| Phosphatidylcholine hydroperoxide | – | 1.6 µM | 1.6 µM |
